In paper PMC7464552, “Structural Basis of Beneficial Design for Effective Nicotinamide Phosphoribosyltransferase Inhibitors” (Molecules, 2020):
pEC50, pIC50: −log10 of the molar value.

Key:
recombinant NAMPT = target: T1, recombinant NAMPT (Homo sapiens, UniProt P43490); test: Enzymatic NAMPT assay (CycLex NAMPT colorimetric coupled-enzyme reaction system); assay type: biochemical; conditions: for pIC50: titration curves of Figure 3a, coupled-enzyme colorimetric assay, read-out: IC50 (NAMPT inhibitory activity)
T1 construct: purchased MEDICAL & BIOLOGICAL LABORATORIES CO., LTD; (CycLex NAMPT Colorimetric Assay Kit)
Procedure: For the inhibitory effects of 3a and 3b on NAMPT activity, recombinant NAMPT activity was measured using a coupled-enzyme reaction system (CycLex NAMPT Colorimetric Assay Kit: MEDICAL & BIOLOGICAL LABORATORIES CO., LTD., Nagoya, Japan) according to the manufacturer’s instructions, as described previously. Briefly, NAMPT enzyme and tested compounds were put on the 96-well transparent plate. […] After a brief incubation, the absorbance of the samples was detected at 450 nm on every 10 min until 60 min using a SYNERGY HTX (BioTek Instruments, Inc.; Winooski, VT, USA). The inhibition rates were calculated by the initial slope of the absorbance of the tested samples divided by that of the control wells. The IC50 values for the samples were calculated by 4-parameter logistic regression using Image J 1.48v (https://imagej.nih.gov/ij/).
Figure 3 Biochemical properties of 3a and 3b. […] NAMPT activity was measured using a coupled-enzyme reaction system (CycLex NAMPT colorimetric assay kit) in 96-well plate format using the one-step method. Data are the averages of three independent experiments, and the bars indicate the standard error (SE) values. (b) The anti-proliferative effects of 3a (circle) and 3b (triangle) on HCT116 cells were investigated as described previously. HCT116 cells were treated with the indicated concentrations of each inhibitor with (closed symbol) or without (open symbol) 100 μM NMN for 72 h. The cell activity (% of control) was measured by use of the WST-8 assay. Data are presented as the means of three independent experiments ± SE, and the bars indicate the SE values.

[1] = test system: NAD+ levels in the cancer cells; test: Reduction of NAD+ levels in the cancer cells after 24 h-treatment; assay type: cell-based, human
Procedure: (§1) To confirm the marked differences of anti-NAMPT activities between 3a and 3b, the anti-proliferation effects of these inhibitors on the human colon cancer cell line HCT116 were examined after continuous exposure for 72 h. […] In addition, there was little cytotoxicity on non-cancer cell lines, such as TIG-120, WI38 and MRC-5 cells. Both 3a and 3b caused more than 90% reduction of NAD^+ levels in the cancer cells after 24 h-treatment and thereby induced cell death.

HCT116 cells = test: Cell activity (anti-proliferation) assay, WST-8, 72 h; assay type: cell-based, human; conditions: for rescue of HCT116 cells from cell death by supplementation of NMN: 100 μM NMN in the cell culture medium, 72 h; for pEC50: Homo sapiens, HCT-116, read-out: 50% effective concentration (EC50), anti-proliferation, HCT116, continuous exposure for 72 h, WST-8
Procedure: as §1
HCT116 cell was obtained from American Type Culture Collection (ATCC) (Manassas, US) and cultured in Dulbecco’s modified Eagle medium (DMEM) (FUJIFILM Wako Pure Chemical Corporation) supplemented with 10% of fetal bovine serum (Biosera Europe; Nuaillé, France), 100 Units/mL of penicillin G and 100 μg/mL of Streptomycin (FUJIFILM Wako Pure Chemical Corporation).
One thousand HCT116 cells were inoculated into the 96-well transparent cell culture plate and cultured for 24 h. The medium was changed to new medium that contained the tested compounds and was further cultivated for 72 h. Following the culture, 1/10 volume of the WST-8 reagent (FUJIFILM Wako Pure Chemical Corporation) was added and incubated for 1 h. After the incubation, the absorbance of the samples was detected at 450 nm using a SYNERGY HTX (BioTek Instruments, Inc.). Cell activity was expressed as percentage of control cells treated with vehicle alone.
Figure 3 Biochemical properties of 3a and 3b. (a) The inhibitory activities of 3a (open circle), 3b (open triangle) and 1 (open square) against NAMPT enzyme were examined, as described previously. NAMPT activity was measured using a coupled-enzyme reaction system (CycLex NAMPT colorimetric assay kit) in 96-well plate format using the one-step method. Data are the averages of three independent experiments, and the bars indicate the standard error (SE) values. (b) The anti-proliferative effects of 3a (circle) and 3b (triangle) on HCT116 cells were investigated as described previously. HCT116 cells were treated with the indicated concentrations of each inhibitor with (closed symbol) or without (open symbol) 100 μM NMN for 72 h. The cell activity (% of control) was measured by use of the WST-8 assay. Data are presented as the means of three independent experiments ± SE, and the bars indicate the SE values.

T1 sequence (P43490 whole entry): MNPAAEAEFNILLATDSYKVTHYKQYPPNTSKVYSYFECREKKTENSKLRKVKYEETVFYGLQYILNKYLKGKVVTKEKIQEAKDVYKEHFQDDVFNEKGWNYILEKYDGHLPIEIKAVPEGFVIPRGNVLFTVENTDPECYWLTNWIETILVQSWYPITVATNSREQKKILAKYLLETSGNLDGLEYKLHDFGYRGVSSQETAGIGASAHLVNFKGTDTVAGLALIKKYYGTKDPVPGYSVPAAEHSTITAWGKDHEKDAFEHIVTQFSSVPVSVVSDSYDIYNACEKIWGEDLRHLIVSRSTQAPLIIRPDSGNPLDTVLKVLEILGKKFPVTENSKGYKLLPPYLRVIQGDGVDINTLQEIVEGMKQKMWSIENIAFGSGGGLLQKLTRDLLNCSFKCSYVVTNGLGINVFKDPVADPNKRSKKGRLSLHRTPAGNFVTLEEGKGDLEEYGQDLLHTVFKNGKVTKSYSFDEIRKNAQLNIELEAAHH

| fold stronger NAMPT inhibitory activity than 1 (recombinant NAMPT; ratio of IC50 values, versus 1) | pIC50 (recombinant NAMPT) | pEC50 (HCT116 cells) | fold weaker NAMPT inhibitory activity than 3a (recombinant NAMPT; ratio of IC50 values, versus 3a) | fold higher EC50 than 3a (HCT116 cells; HCT116, 72 h, ratio of EC50 values, versus 3a) | SMILES | reduction of NAD+ levels [1] | rescue of HCT116 cells from cell death by supplementation of NMN (HCT116 cells) |
| --- | --- | --- | --- | --- | --- | --- | --- |
| approximately 5 fold | 6.96 | 9.32 | – | – | O=C(NCCCCC1CCN(C(=O)c2ccccc2)CC1)c1cc2cnccc2[nH]1 [Compound 3a, N-(4-(1-benzoylpiperidin-4-yl)butyl)-1H-pyrrolo[3,2-c]pyridine-2-carboxamide] | more than 90% | significantly rescue |
| – | 5.30 | 7.06 | about 50 fold | approximately 200 fold | O=C(NCCCCN1CCN(C(=O)c2ccccc2)CC1)c1cc2cnccc2[nH]1 [Compound 3b, N-(4-(4-Benzoylpiperazin-1-yl)butyl)-1H-pyroro[3,2-c]pyridine-2-carboxamide] | more than 90% | significantly rescue |
